Test results reported in US10023836B2, “Medium for yeasts” (YAMAGUCHI UNIVERSITY, priority 2012, dated 2018).

Key:
RAK2683 yeast strain = test: Investigation of nitrogen source used singly in MM culture medium instead of ammonium sulfate (Table 4); assay type: cell-based, Saccharomyces cerevisiae; conditions: Table 4 conditions
[1] = test system: Saccharomyces cerevisiae RAK3599 strain; test: SynAA culture medium: elimination of single components and inorganic ion concentration; assay type: cell-based; conditions: for proliferation when the component is not added: one component of the inorganic ion mix eliminated from SynAA culture medium; for OD600 for 1/100 solutions after 42 hours: SynAA culture medium
Procedure: (§1) In a case where no special provisions are made, a procedure for a cultivation experiment using the culture medium to be investigated for proliferation was such that a yeast undergoing investigation was pre-cultured in a YPD liquid culture medium at 28° C. for 24 hours, after which the yeast was adjusted such that OD600=20. […] In addition, OD600 was measured every 15 minutes by a spectrophotometer (Cell density meter co8000, WPA). Hereafter, data is represented by graphs for a case using the automatic spectrophotometer; however, these graphs are primarily used to compare the slope of logarithmic growth phase proliferation curves for each culture medium, and because OD600 is measured without dilution, values where OD600=3 to 3.5 or more may be incorrect.
Culture mediums were prepared in which one component each of the components configuring the inorganic ion mix was eliminated from the SynAA culture medium, and OD600 was measured. […] Thereafter, an investigation specifically of inorganic ion concentration was conducted. […] An investigation was conducted using RAK3599 strain (hereafter, simply referred to as “RAK3599 strain”), which is a strain of Saccharomyces cerevisiae not having a particular nutritional requirement. Where no subsequent special provisions were made, proliferation was investigated by performing roller tube culture for an appropriate amount of time at 28° C. and measuring OD600.
MgSO4 concentration in the SynAA culture mediums was adjusted to 0%, 0.0001%, 0.001%, 0.01%, 0.1%, and 1%, respectively, and proliferation of the RAK3599 strain was investigated. […] Next, MgCl2 concentration in the SynAA culture mediums was adjusted to 0.001%, 0.01%, 0.1%, and 1%, respectively, and proliferation of the RAK3599 strain was investigated.
A culture medium was prepared in which one component each of the components configuring the vitamin mix was eliminated from the SynAA culture medium, with the SynAA culture medium as the control, and proliferation of the RAK3599 strain was investigated.

[2] = test system: Saccharomyces cerevisiae adenine-requiring BY4725 (ade2Δ) strain; test: Adenine concentration in AKD culture medium (FIG. 20); assay type: cell-based
Procedure: A concentration of adenine contained in the amino acid mix of the AKD culture mediums for convenience was adjusted to 0%, 0.005%, 0.01%, 0.05%, 0.1%, and 0.5%, respectively, and proliferation of a Saccharomyces cerevisiae adenine-requiring BY4725 (ade2Δ) strain was investigated. OD600 for 1/20 solutions after 42 hours was 4, 15, 18, 18, 13 and 16, respectively. […] Given the above-noted results, a preferred adenine concentration was understood to be around 0.01%.

[3] = test system: Saccharomyces cerevisiae histidine-requiring BY4714 (his3Δ1) strain; test: Histidine concentration in AKD culture medium (FIG. 17); assay type: cell-based
Procedure: Histidine concentration in the AKD culture mediums was adjusted to 0.001%, 0.01%, 0.1%, and 1%, respectively, and proliferation of a Saccharomyces cerevisiae histidine-requiring BY4714 (his3Δ1) strain was investigated. A maximum value was reached between 0.01% and […]. OD600 for 1/100 solutions after 42 hours was 0.07, 0.18, 0.18, and 0.15, respectively. Given the above-noted results, a preferred histidine concentration was understood to be around 0.01%.

RAK3599 strain [4] = test: Vitamin and FeCl3 concentration in AKD′ culture medium (FIGS. 22 to 28); assay type: cell-based, Saccharomyces cerevisiae
Procedure: as §1
Pyridoxine concentration in the AKD′ culture medium was adjusted to 0, 0.004, 0.04, 0.4, 4, and 40 μg/mL, respectively, and proliferation of the RAK3599 strain was investigated.
Pantothenic acid concentration in the AKD′ culture medium was adjusted to 0, 0.004, 0.04, 0.4, 4, and 40 μg/mL, respectively, and proliferation of the RAK3599 strain was investigated.
Thiamine concentration in the AKD′ culture medium was adjusted to 0, 0.004, 0.04, 0.4, 4, and 40 μg/mL, respectively, and proliferation of the RAK3599 strain was investigated.
Nicotinic acid concentration in the AKD′ culture medium was adjusted to 0, 0.004, 0.04, 0.4, 4, and 40 μg/mL, respectively, and proliferation of the RAK3599 strain was investigated.
Myo-inositol concentration in the AKD′ culture medium was adjusted to 0, 0.02 μg/mL, 0.2 μg/mL, 2 μg/mL, 20 μg/mL, and 200 μg/mL, respectively, and proliferation of the RAK 3599 strain was investigated.
FeCl3 concentration in the AKD′ culture medium was adjusted to 0, 0.002, 0.02, 0.2, 2, and 20 μg/mL, respectively, and proliferation of the RAK3599 strain was investigated.

[5] = test system: Saccharomyces cerevisiae uracil-requiring BY4700 (ura3Δ) strain; test: Uracil concentration in AKD culture medium (FIG. 19); assay type: cell-based
Procedure: A concentration of uracil contained in the amino acid mix of the AKD culture mediums for convenience was adjusted to 0.001%, 0.005%, 0.05%, 0.1%, and 0.5%, respectively, and proliferation of a Saccharomyces cerevisiae uracil-requiring BY4700 (ura3Δ) strain was investigated. OD600 for 1/100 solutions after 42 hours was 0.10, 0.21, 0.21, 0.22 and 0.20, respectively. Proliferation was confirmed to be low at 0.001%, to increase at 0.005%. and to markedly increase at between 0.05% and 0.1%. Proliferation was confirmed to be somewhat inhibited at 0.5%. Given the above-noted results, a preferred uracil concentration was understood to be around 0.01%.

RAK3599 strain [6] = test: Investigation with AID and aY-AID culture medium (FIGS. 29 to 39); assay type: cell-based, Saccharomyces cerevisiae; conditions: for effect on proliferation when added at high concentrations: up to 1% or up to 0.2500%
Procedure: As shown in the following, an investigation was conducted into concentrations of each amino acid and a substitution potential of pantothenic acid for the amino acid in the AID culture medium. A suitable YPD culture medium was used as a control.
Next, the amino acids asparagine, isoleucine, phenylalanine, and valine were each adjusted to a culture medium additive concentration of […], 0.0312%, 0.0625%, 0.1250%, and 0.2500%, and OD600 was measured after 24 hours.
Isoleucine concentration in the aY-AID culture medium was adjusted to 0, 0.01 mg/mL, 0.1 mg/mL, 0.5 mg/mL, and 1 mg/mL, respectively, and proliferation of the RAK3599 strain was investigated.
Phenylalanine concentration in the aY-AID culture medium was adjusted to 0, 0.01, 0.1, 0.5, and 1 mg/mL, respectively, and proliferation of the RAK3599 strain was investigated.
Valine concentration in the aY-AID culture medium was adjusted to 0, 0.01, 0.1, 0.5, and 1 mg/mL, respectively, and proliferation of the RAK3599 strain was investigated.
Serine concentration in the AID culture medium was adjusted to 0, 0.01 mg/mL, 0.1 mg/mL, 0.5 mg/mL, and 1 mg/mL, respectively, and proliferation of the RAK3599 strain was investigated.
Threonine concentration in the AID culture medium was adjusted to 0, 0.01, 0.1, 0.5, and 1 mg/mL, respectively, and proliferation of the RAK3599 strain was investigated.
Asparagine concentration in the AID culture medium was adjusted to 0, 0.01, 0.1, 0.5, and 1 mg/mL, respectively, and proliferation of the RAK3599 strain was investigated.
An investigation was conducted into vitamins contained in the AID culture medium. […]

[7] = test system: Saccharomyces cerevisiae tryptophan-requiring BY4710 (trp1Δ) strain; test: Tryptophan concentration in AKD culture medium (FIG. 18); assay type: cell-based
Procedure: Tryptophan concentration in the AKD culture mediums was adjusted to 0.001%, 0.01%, 0.1%, and 1%, respectively, and proliferation of a Saccharomyces cerevisiae tryptophan-requiring BY4710 (trp1Δ) strain was investigated. OD600 for 1/100 solutions after 48 hours was 0.08, 0.15, 0.13, and 0.12, respectively. […] Given the above-noted results, a preferred tryptophan concentration was understood to be around 0.01%.

## Cl.N [Ammonium chloride]
RAK2683 yeast strain
  proliferation when added singly as nitrogen source: did not, as a whole, exhibit favorable proliferation

## N.N.O=S(=O)(O)O [Ammonium sulfate]
RAK2683 yeast strain
  proliferation when added singly as nitrogen source: proliferation was confirmed to be extremely poor
[1]
  proliferation when the component is not added: higher proliferation

## Nc1ncnc2nc[nH]c12 [adenine]
[2]
  concentration at which proliferation was slightly inhibited: ≥ 0.1%
  preferred concentration: around 0.01%
[2]; adenine 0%
  OD600 for 1/20 solutions after 42 hours: 4
[2]; adenine 0.005%
  OD600 for 1/20 solutions after 42 hours: 15
[2]; adenine 0.01%
  OD600 for 1/20 solutions after 42 hours: 18
[2]; adenine 0.05%
  OD600 for 1/20 solutions after 42 hours: 18
[2]; adenine 0.1%
  OD600 for 1/20 solutions after 42 hours: 13
[2]; adenine 0.5%
  OD600 for 1/20 solutions after 42 hours: 16

## O=C(O)[C@@H]1CCCN1 [Proline, L-Proline]
RAK2683 yeast strain
  proliferation when added singly as nitrogen source: favorable proliferation

## CC(=O)O.N [Ammonium acetate]
RAK2683 yeast strain
  proliferation when added singly as nitrogen source: did not, as a whole, exhibit favorable proliferation

## Cl.NCCCC[C@H](N)C(=O)O [Lysine, L-Lysine hydrochloride]
RAK2683 yeast strain
  proliferation when added singly as nitrogen source: almost no proliferation

## O.O.O.O.O.O.O.O=S(=O)([O-])[O-].[Mg+2] [MgSO4, magnesium sulfate-heptahydrate]
[1]; concentration of the substance adjusted to 0%
  OD600 for 1/100 solutions after 42 hours: 0.02
[1]; concentration of the substance adjusted to 0.0001%
  OD600 for 1/100 solutions after 42 hours: 0.04
[1]; concentration of the substance adjusted to 0.001%
  OD600 for 1/100 solutions after 42 hours: 0.09
[1]; concentration of the substance adjusted to 0.01%
  OD600 for 1/100 solutions after 42 hours: 0.12
[1]; concentration of the substance adjusted to 0.1%
  OD600 for 1/100 solutions after 42 hours: 0.13
[1]; concentration of the substance adjusted to 1%
  OD600 for 1/100 solutions after 42 hours: 0.13
[1]
  proliferation when the component is not added: extremely low proliferation

## Cl.N[C@@H](Cc1c[nH]cn1)C(=O)O.O [Histidine, L-Histidine hydrochloride hydrate]
RAK2683 yeast strain
  proliferation when added singly as nitrogen source: almost no proliferation
[3]
  preferred concentration: around 0.01%
[3]; histidine 0.001%
  OD600 for 1/100 solutions after 42 hours: 0.07
[3]; histidine 0.01%
  OD600 for 1/100 solutions after 42 hours: 0.18
[3]; histidine 0.1%
  OD600 for 1/100 solutions after 42 hours: 0.18
[3]; histidine 1%
  OD600 for 1/100 solutions after 42 hours: 0.15

## CC(C)(CO)[C@@H](O)C(=O)NCCC(=O)O [pantothenic acid]
RAK3599 strain [4]; AKD′ culture medium
  concentration at which proliferation was inhibited: 40 µg/mL
  preferred concentration: around 4000 μg/L
RAK3599 strain [4]; AKD′ culture medium without the substance
  proliferation at a content of 0: no proliferation whatsoever
[1]; one component of the vitamin mix eliminated from SynAA culture medium
  essentiality for increasing proliferation: essential components

## O=c1cc[nH]c(=O)[nH]1 [uracil]
[5]
  concentration at which proliferation was somewhat inhibited: 0.5%
  preferred concentration: around 0.01%
[5]; uracil 0.001%
  OD600 for 1/100 solutions after 42 hours: 0.10
[5]; uracil 0.005%
  OD600 for 1/100 solutions after 42 hours: 0.21
[5]; uracil 0.05%
  OD600 for 1/100 solutions after 42 hours: 0.21
[5]; uracil 0.1%
  OD600 for 1/100 solutions after 42 hours: 0.22
[5]; uracil 0.5%
  OD600 for 1/100 solutions after 42 hours: 0.20

## N[C@@H](CCC(=O)[O-])C(=O)[O-].O.[Na+].[Na+] [Glutamic acid, L-Glutamic acid sodium salt hydrate]
RAK2683 yeast strain
  proliferation when added singly as nitrogen source: favorable proliferation

## NCC(=O)O [Glycine]
RAK2683 yeast strain
  proliferation when added singly as nitrogen source: almost no proliferation
RAK3599 strain [6]; AID culture medium
  effect on proliferation when added at high concentrations: proliferation was confirmed to be inhibited

## N[C@@H](Cc1c[nH]c2ccccc12)C(=O)O [Tryptophan, L-Tryptophan]
[7]
  concentration at which proliferation was somewhat inhibited: 0.1%
  preferred concentration: around 0.01%
[7]; tryptophan 0.001%
  OD600 for 1/100 solutions after 48 hours: 0.08
[7]; tryptophan 0.01%
  OD600 for 1/100 solutions after 48 hours: 0.15
[7]; tryptophan 0.1%
  OD600 for 1/100 solutions after 48 hours: 0.13
[7]; tryptophan 1%
  OD600 for 1/100 solutions after 48 hours: 0.12

## C[C@@H](O)[C@H](N)C(=O)O [Threonine, L-Threonine]
RAK2683 yeast strain
  proliferation when added singly as nitrogen source: almost no proliferation
RAK3599 strain [6]; AID culture medium
  content at which proliferation particularly increased: around 0.5 mg/mL
  effect on proliferation when added at high concentrations: proliferation was confirmed to be inhibited
RAK3599 strain [6]; AID or aY-AID culture medium
  preferred concentration / content: around 0.5 g/L
